The values below come from patent US20090196878A1, “Intestinal epithelial glucose sensor” (priority 2004, published 2009).

Series [1] has as its system SGLT1 expression. Put plainly: Dietary trial, SGLT1 mRNA by real-time PCR in wild-type mice. It is filed as in vivo, mouse. The note with it: proximal and mid intestinal regions, low carbohydrate diet plus sucralose 2 mM, 2 weeks, qPCR. Here is the method:
(§1) Male CD-1 and C57BL/6 mice, six weeks old, from Charles River Laboratories were used. The α-gustducin knock out mouse was described by Wong et al. (1996); the T1R3 knock out mouse was described by Damak et al. 2003).
(§2) High and low carbohydrate diets were resp. TestDiet® 5810 and TestDiet® 5787-9. For the sucralose test, the low carbohydrate diet was supplemented with sucralose (1,6-dichloro-1,6-dideoxy-beta-D-fructofuranosyl-4-chloro-4-deoxy-alpha-galactopyranoside) at 2 mM.
(§3) Animals were killed by concussion followed by cervical dislocation. The entire small intestine was removed and flushed with ice-cold 0.9% NaCl, opened longitudinally, rinsed in saline and mucous removed by blotting. The small intestine was then divided into proximal, mid and distal sections and the mucosa removed by scraping. Mucosal scrapings were frozen immediately in liquid nitrogen and stored at −80° C. until use. […]
(§4) Second, groups of wildtype and T1R3 and α-gustducin KO mice were placed on each of three iso-caloric diets a) low carbohydrate, b) high carbohydrate, and c) low carbohydrate+artificial sweetener (sucralose), for two weeks. After this time the mice were killed and the small intestines were removed, divided into proximal, mid and distal regions, and SGLT1 expression, at protein and mRNA levels, were measured in each.
In general terms: In qPCR the cycle at which signal appears reflects the starting amount.

The subject of series [2] is SGLT1 expression. Put plainly: Dietary trial, SGLT1 protein by western blot of luminal membrane vesicles in wild-type mice. The class given is in vivo, mouse. The note with it: low carbohydrate + sucralose diet, 2 weeks. The procedure:
as §1, §2, §3, §4
In general terms: In western blotting, separated proteins are transferred to a membrane and probed.

The conditions of series [3]: reported, Roberts et al. 2000; cited from earlier work.
In series [4] the test system is SGLT1 expression. Put plainly: Dietary trial, SGLT1 expression in T1R3 knock-out mice. It is filed as in vivo, mouse. The note with it: T1R3 KO mice, low-carbohydrate + sucralose diet, 2 weeks. Here is the method: as §1, §2, §3, §4
The subject of series [5] is SGLT1 expression. In words: Dietary trial, SGLT1 expression in α-gustducin knock-out mice. The note with it: α-gustducin KO mice, low-carbohydrate + sucralose diet, 2 weeks. It is filed as in vivo, mouse. The procedure:
as §1, §2, §3, §4

On to `OC[C@H]1O[C@H](O[C@]2(CCl)O[C@H](CCl)[C@@H](O)[C@@H]2O)[C@H](O)[C@@H](O)[C@H]1Cl` [sucralose, 1,6-dichloro-1,6-dideoxy-beta-D-fructofuranosyl-4-chloro-4-deoxy-alpha-galactopyranoside], for which, in the series on SGLT1 expression [1], the “increase in SGLT1 mRNA” value was 30-70%. Also, the SGLT1 protein expression entry in the series on SGLT1 expression [2] is “increased”. In addition, the “hydrolysis, transport and metabolism within the mammalian small intestine” value in series [3] is “non-hydrolysed, non-transported and non-metabolised”. Moreover, in the series with SGLT1 expression [4], the “SGLT1 mRNA” value is listed as “no increase” and the SGLT1 protein result is reported as “no increase”. Moreover, in the series with SGLT1 expression [5], the “SGLT1 mRNA” value is listed as “no increase” and the SGLT1 protein entry is on record as “no increase”.
